Source: patent publication US11141444B2, “Lactobacillus crispatus KBL693 strain and use thereof” (KO Biolabs, Inc., priority 2018, dated 2021)

System: RBL-2H3 cells
Assay: Inhibition of degranulation (β-hexosaminidase co-secreted with histamine) in RBL-2H3 cells
Format: cell-based
Details: RBL-2H3, IgE + DNP-HAS induced degranulation; 120 μL culture supernatant or ketotifen 20 μg/mL; negative control (Siraganian buffer) = 1.0
Excerpt: It has been reported that, in an allergic reaction, histamine is expressed in tissues, causing an inflammatory reaction, and suppressing histamine secretion leads to alleviation of allergic symptoms by blocking the reaction by histamine. The present invention attempted to select probiotic strains that can show effects on the alleviation and treatment of allergic reactions through inhibition of histamine secretion. To this end, a total of eight Lactobacillus strains derived from human vagina were evaluated for the ability to suppress histamine secretion. […]
To identify the activity of β-hexosaminidase, 25 μL of the supernatant collected in Example 1-3 was transferred to each well of a 96-well plate, and then 25 μL of each substrate (p-nitrophenyl N-acetyl-D-[…]) was added thereto, and followed by a reaction at 37° C. in the 5% CO2 incubator for 90 minutes. Then, 200 μL of stop solution (Na2CO3/NaHCO3) was added to stop the reaction and then absorbance was measured at 405 nm. The absorbance when treated with each type of Lactobacillus crispatus was compared to the negative control group and converted to percentage to show the level of inhibition of the degranulation.

In the case of `CN1CCC(=C2c3ccccc3CC(=O)c3sccc32)CC1` [Ketotifen, ketotifen], the “β-hexosaminidase (fold change)” value is reported as 0.2569 fold change.
